Data published in patent publication US20220117958A1, “COMPOSITIONS AND METHODS FOR INHIBITING ACSS2” (THE TRUSTEES OF THE UNIVERSITY OF PENNSYLVANIA, priority 2018, published 2022).

How the values were obtained:
Type in all cases: in vitro ADME
[1] = Protein binding via Rapid Equilibrium Dialysis - plasma; settings: Rat (SD) plasma, 2 μM
Excerpt: (§1) Table 20 provides results of in vitro and in vivo pharmacokinetics performed for each of the represented compounds.

[2] = Microsomal stability assay (half-life), human; settings: Human microsomes, read-out: Microsomal stability T1/2
Excerpt: as §1

[3] = Microsomal stability assay (half-life), mouse; settings: Mouse (CD1) microsomes, read-out: Microsomal stability T1/2
Excerpt: as §1

[4] = Microsomal stability assay (half-life), rat; settings: Rat (SD) microsomes, read-out: Microsomal stability T1/2
Excerpt: as §1

Row | Protein binding, plasma: % Protein free [1] [% Protein free] | half-life at 2 μM [2] [min] | half-life at 2 μM [3] [min] | half-life at 2 μM [4] [min] | SMILES
1 | 0.5177 | – | – | – | CC(=O)CC(c1ccccc1)c1c(O)c2ccccc2oc1=O (stereo not shown) [Warfarin, reference compound]
2 | – | 7.97 | < 15 | 6.13 | CCOc1ccc2ccc(=O)oc2c1 [7-Ethoxycoumarin, reference compound]
